Reference: the supplement of paper PMC6723410

Test system: GUMC-403
Test: viability at highest tested concentration (max response) relative to DMSO (% of DMSO control); higher = less cytotoxic
Conditions: library / dose series: MIPE library, 11-point 1:3 dilution, 48 h
Outline: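 Patient-derived GUMC-403 papilloma cells grown by conditional reprogramming were plated at 700/well in 5 μL F + Y medium in 1536-well plates and incubated overnight at 37 °C. They then received 23 nL of MIPE 4.0 compounds by pin tool (11-point 1:3 series) for 48 h. CellTiter-Glo luminescence was read on a ViewLux and normalised with DMSO wells as 100% and empty wells as 0%. The value is viability at the highest tested concentration relative to DMSO control.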

| Compound | viability (top concentration 46.1 µM) | further results |
| --- | --- | --- |
| CCC(=O)OC1CCC2C3CCC/4=C/C(=O)CC[C@@]4(C)C3CC[C@]12C (some centres not stated) | 130 | – |
| CCC(C1CCC(C)C(O1)C(C)C(O)C(C)C(=O)C(CC)C2OC\3(O[C@]4(CC[C@@](C)(O4)C5CC[C@@](O)(CC)C(C)O5)C(O)\C=C3)C(C)CC2C)C([O-])=O (some centres not stated) | 76 | – |
| COc1cccc2c1CCCC2CCCN1CCN(C2CCCCC2)CC1 (configuration not stated) | 112 | – |
| C[S+]([O-])c1ccc(-c2nc(-c3ccc(F)cc3)c(-c3ccncc3)[nH]2)cc1 (configuration not stated) | – | viability (top concentration 92.2 µM): 71.3 |
| CCC(=O)NC[C@H](Cc1ccc(OCCc2nc(-c3ccccc3)oc2C)cc1)N/C(C)=C\C(=O)c1ccc(C(F)(F)F)cc1 | 109 | – |
| CSCC[C@@H](NC(=O)[C@@H](Cc1ccccc1)NC(=O)CNC(=O)CNC(=O)[C@@H](N)Cc1ccc(O)cc1)C(=O)O | 126 | – |
| Nc1nc(N)c(N=O)c(OCC2CCCCC2)n1 | 88.3 | – |
| COc1ccc(-c2c(-c3ccc(O)cc3O)n[nH]c2C)cc1 | – | viability (top concentration 92.2 µM): 98.3 |
| C1Cc2[nH]nc(-c3nn[nH]n3)c2C1 | 118 | – |
| COc1cccc(Nc2c(C(N)=O)cnc3c(C)cc([S+](=O)([O-])c4cccc(C(=O)N(C)C)c4)cc23)c1 | – | viability (top concentration 23 µM): 97.1 |
| COc1cc(C)c(Sc2cnc(NC(=O)c3ccc(CNC(C)C(C)C)cc3)s2)cc1C(=O)N1CCN(C(C)=O)CC1 (configuration not stated) | 85.7 | – |
| Cl.Cl.Clc1ccc(Nc2nnc(Cc3ccncc3)c3ccccc23)cc1 | 101 | – |
| C[C@@H](NCCCc1cccc(C(F)(F)F)c1)c1cccc2ccccc12 | 99.7 | – |
| N#C/C(=C(/N)Sc1ccc(N)cc1)c1ccccc1C(F)(F)F | 87.9 | – |
| Cn1cnc(N)c2ncnc1-2 | 82.9 | – |
| CC(=O)Nc1sc2c(c1-c1nc3ccccc3s1)CNC2 | 86.3 | – |
| CCCNC(=O)Nc1ccc(Oc2ncnc3cc(OC)c(OC)cc23)cc1Cl | 92.2 | – |
| CCN1\C=C(C(O)=O)/C(=O)C2=C1C(=C(N3CCNC(C)C3)C(=C2)F)F (configuration not stated) | 126 | – |
| CCCCCCCN(CC)CCCC(O)c1ccc(NS(C)(=O)=O)cc1.CCCCCCCN(CC)CCCC(O)c1ccc(NS(C)(=O)=O)cc1.O=C(O)/C=C/C(=O)O (configuration not stated) | 106 | – |
| CCNC(=O)C[C@H]1/N=C(/C2=CC=C(Cl)C=C2)C3=CC(=CC=C3[N]4C(=NN=C14)C)OC | 93.5 | – |
| CC[C@H]1OC(=O)[C@H](C)C(=O)[C@H](C)[C@@H](O[C@H]2O[C@H](C)C[C@H](N(C)C)[C@H]2O)[C@](C)(OC)C[C@@H](C)C(=O)[C@H](C)[C@H]2N(CCCCn3cnc(-c4cccnc4)c3)C(=O)O[C@]12C | 102 | – |

| Compound | viability (top concentration 46.1 µM) | further results |
| --- | --- | --- |
| OCCNC1CCCc2c1[nH]c1ccc(-c3ccccc3)cc21 (configuration not stated) | 107 | – |
| COc1ccc(Cn2ccc3ccc(C(=O)NO)cc32)cc1 | 108 | – |
| OC[C@H]1O[C@H]([C@H](O)[C@@H]1O)N2\C=C/C(=O)NC2=O | 121 | – |
| CC1Cc2ccccc2N1NC(=O)c1ccc(Cl)c([S+](N)(=O)[O-])c1 (configuration not stated) | 105 | – |
| CCOc1ccc(Cc2cc([C@@H]3O[C@H](CO)[C@@H](O)[C@H](O)[C@H]3O)ccc2Cl)cc1 | 130 | – |
| C[C@@H]1C(=O)O[C@H]2CC34[C@H]5C[C@@H](C(C)(C)C)C36[C@@H](OC(=O)[C@@H]6O)O[C@@]4(C(=O)O5)[C@]21O (some centres not stated) | 101 | – |
| O=C(O[C@H]1C[C@H]2CC[C@@H](C1)[N+]21CCCC1)C(O)(c1ccccc1)c1ccccc1.[Cl-] | 140 | – |
| OC[C@H]1OC(O)C[C@@H](O)[C@@H]1O (some centres not stated) | 126 | – |
| CCc1ccc(/C=C2/SC(=S)NC2=O)cc1 | 106 | – |
| COc1ccnc(C[S+]([O-])c2nc3cc(OC(F)F)ccc3[nH]2)c1OC (configuration not stated) | 98.7 | – |
| N#C[C@@H]1C[C@@H]2C[C@@H]2N1C(=O)[C@@H](N)C12CC3CC(CC(O)(C3)C1)C2 | 111 | – |
| CC(S)C(=O)NCC(=O)O (configuration not stated) | 135 | – |
| COc1ccc(COc2cc3oc(=O)c4cc(C(C)O)ccc4c3cc2OC)cc1 (configuration not stated) | 86.3 | – |
| CC(C)(N)c1ccc(-c2nc3ccccc3nc2-c2ccccc2)cc1 | 116 | – |
| COc1cc([C@@H]2c3cc4c(cc3[C@@H](O[C@@H]3O[C@@H]5CO[C@@H](c6cccs6)O[C@H]5[C@H](O)[C@H]3O)[C@H]3COC(=O)[C@H]23)OCO4)cc(OC)c1O | 56.7 | – |
| N[C@@H]1C[C@H]1c1ccccc1 | 108 | – |
| Cc1ccccc1C(=O)c1ccc(Nc2ccc(Br)cc2N)cc1Cl | 103 | – |
| OCc1ccc(-c2nn(Cc3ccccc3)c3ccccc23)o1 | 94.3 | – |
| Cn1cc(-c2cnn3c(N)c(Br)c([C@H]4CCCNC4)nc23)cn1 | 100 | – |
| OC[C@H]1O[C@@H](Oc2ccc(O)cc2)[C@H](O)[C@@H](O)[C@@H]1O | 99.9 | – |
| OC(=O)\C1=C\N(C2CC2)C3=CC(=C(F)C=C3C1=O)N4CCNCC4 | 105 | – |

| Compound | viability (top concentration 46.1 µM) | further results |
| --- | --- | --- |
| CC(C)C(=O)Oc1ccc(CO)cc1[C@H](CCN(C(C)C)C(C)C)c1ccccc1 | 84.7 | – |
| Cn1c(=O)n(-c2ccc(C(C)(C)C#N)cc2)c2c3cc(-c4cnc5ccccc5c4)ccc3ncc21 | 73.3 | – |
| COc1ccc(OC)c(-c2nnc3ccc(-c4ccc(OC)c(O[C@@H]5CCOC5)c4)nn23)c1 | 4.61 | – |
| O=c1[nH]c2ccccc2n1CCCN1CCC(n2c(=O)[nH]c3cc(Cl)ccc32)CC1 | 130 | – |
| CC(C)c1noc(N2CCC(COc3ccc(-c4ccc([S+](C)(=O)[O-])cc4)nc3)CC2)n1 | 91.9 | – |
| Clc1ccc(-c2nc3sccn3c2/C=N/OCc2ccc(Cl)c(Cl)c2)cc1 | 85.8 | – |
| CCN1\C=C(\C(O)=O)C(=O)C2=C1C=C(N3CCNCC3)C(=C2)F | 121 | – |
| CCOC(=O)[C@H](CCc1ccccc1)N[C@H]1CS[C@H](c2cccs2)CN(CC(=O)O)C1=O.Cl | 118 | – |
| CC(C)CC(N(C)C)C1(c2ccc(Cl)cc2)CCC1 (configuration not stated) | 122 | – |
| O=C(Oc1ccc([N+](=O)[O-])cc1)N1CCC(C(O)(c2ccc3c(c2)OCO3)c2ccc3c(c2)OCO3)CC1 | 105 | – |
| CN1CCN(CC1)C2=C3OCN(C)N4\C=C(C(O)=O)/C(=O)C(=C34)C=C2F | 123 | – |
| COc1cc(C(=O)NC2CCN(C)CC2)ccc1Nc1ncc2c(n1)N(C1CCCC1)CCC(=O)N2C(C)C | 93.5 | – |
| O=C(O)CCC1CCC(c2cc(F)ccc2F)([S+](=O)([O-])c2ccc(Cl)cc2)CC1 (configuration not stated) | 99.9 | – |
| O=C(O)c1ccc(O)c2ncc(N3CCOCC3)cc12 | 96 | – |
| Cn1cnc2c(F)c(Nc3ccc(Br)cc3Cl)c(C(=O)NOCCO)cc21 | 73.7 | – |
| Cc1cc(OCCCc2c(C(=O)O)n(Cc3cccnc3)c3c(-c4c(COc5ccc(N6CCN([S+](C)(=O)[O-])CC6)cc5)nn(C)c4C)cccc23)cc(C)c1Cl | 105 | – |
| C[C@H]1CN(C[C@@H](C)N1)C2=C(F)C3=C(C(=C2F)N)C(=O)\C(=C/N3C4CC4)C(O)=O | – | viability (top concentration 23 µM): 133 |
| OC[C@H]1O[C@H](C[C@@H]1O)N2/C=C(C(=O)NC2=O)/C(F)(F)F | 103 | – |
| CC[C@@H](C(N)=O)N1CCCC1=O | 6.2 | – |
| Cc1ccc(-n2nc(C(C)(C)C)cc2NC(=O)Nc2ccc(OCCN3CCOCC3)c3ccccc23)cc1 | 56 | – |
| CC(C)(C(=O)NCC(F)(F)C(F)(F)F)C(=O)N[C@@H]1C(=O)Nc2ccccc2-c2ccccc21 | 88.8 | – |

| Compound | viability (top concentration 46.1 µM) | further results |
| --- | --- | --- |
| CCc1cc(-c2n[nH]c(C)c2-c2ccc3c(c2)OCCO3)c(O)cc1O | 88.7 | – |
| Cn1c(CNc2ccc(C(=N)N)cc2)nc2cc(C(=O)N(CCC(=O)O)c3ccccn3)ccc21 | – | viability (top concentration 23 µM): 134 |
| CC1(C)S[C@H]2[C@H](NC(=O)[C@@H](N)C3=CC=C(O)C=C3)C(=O)[N@]2[C@H]1C(O)=O | 124 | – |
| CNNCc1ccc(C(=O)NC(C)C)cc1 | 149 | – |
| C[C@]12CC[C@H]3[C@@H](CC(=C)\C4=C\C(=O)\C=C/[C@]34C)[C@@H]1CCC2=O | 112 | – |
| NC\1=N\C(=O)N(\C=N1)[C@H]2C[C@H](O)[C@@H](CO)O2 | 105 | – |
| O=C(CCCN1CCN(c2ccc(F)cc2)CC1)NC1c2ccccc2CSc2ccccc21 (configuration not stated) | 93.5 | – |
| CC(=O)N[C@@H]1[C@@H](NC(N)=N)\C=C(/O[C@H]1[C@H](O)[C@H](O)CO)C(O)=O | 129 | – |
| O=C1NC(=O)[C@@H](c2cn3c4c(cccc24)CCC3)[C@@H]1c1c[nH]c2ccccc12 | 102 | – |
| CC1(C)[C@@H](O)CC[C@@]2(C)[C@H]1CC[C@]3(C)[C@@H]2C(=O)\C=C/4[C@@H]5C[C@](C)(CC[C@]5(C)CC[C@@]34C)C(O)=O | 117 | – |
| Cc1csc(-c2nnc(Nc3ccc(Oc4ncccc4-c4ccnc(N)n4)cc3)c3ccccc23)c1 | 101 | – |
| COc1cc2nccc(Oc3ccc(NC(=O)Nc4ccc(F)cc4F)c(F)c3)c2cc1OC | 91.3 | – |
| S=C(NCc1ccc2c(c1)OCO2)N1CCN(c2ncnc3c2oc2ccccc23)CC1 | – | viability (top concentration 92.2 µM): 100 |
| N[C@@H](CC(=O)N1CCn2c(nnc2C(F)(F)F)C1)Cc1cc(F)c(F)cc1F | 97.9 | – |
| C[N+]1(C)[C@@H]2C[C@@H](OC(=O)[C@H](CO)c3ccccc3)C[C@H]1[C@@H]1O[C@@H]12.[Br-] | 120 | – |
| COc1c(C)c2c(c(O)c1C/C=C(\C)CCC(=O)OCCN1CCOCC1)C(=O)OC2 | 112 | – |
| Cc1ccc([S+](=O)([O-])Nc2nc3ccccc3nc2Nc2ccc3nsnc3c2)cc1 | – | viability (top concentration 23 µM): 66.3 |
| CN1C(=O)C(=C\C2=C1N=C(NC3=CC=CC(=C3)C(O)=O)N=C2)/C4=C(Cl)C=CC=C4Cl | 148 | – |
| N=C(N)NC(=N)N1CCOCC1 | 132 | – |
